This note sets out measurements from publication PMC10739574 (Bioconjugate Chemistry, 2023).

The assay has as its target Recombinant FKBP12 (Homo sapiens, UniProt P62942). The assay can be described thus: Pure protein target engagement assay. It is filed as binding.

Structures are written as SMILES.

Recombinant FKBP12, sequence (P62942 whole entry): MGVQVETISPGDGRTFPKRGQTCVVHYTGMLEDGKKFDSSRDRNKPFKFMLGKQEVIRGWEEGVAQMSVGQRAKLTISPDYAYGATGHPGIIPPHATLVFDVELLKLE

As to `C#CCCC1(CC[C@H](NC(=O)NCCCCCCNC(=O)NCCNC(=O)COc2cccc([C@@H](CCc3ccc(OC)c(OC)c3)OC(=O)[C@@H]3CCCCN3C(=O)C(=O)C(C)(C)CC)c2)C(N)=O)N=N1.O=C(O)C(F)(F)F` [Compound 3], the “Labeling of FKBP12 in dilution series” value (8-point, 5-fold dilution series, UV irradiated) is given as “Dose-dependent labeling”. In the case of `C#CCCC1(CC[C@H](NC(=O)NCCCCCCNC(=O)NCCNC(=O)COc2cccc([C@@H](CCc3ccc(OC)c(OC)c3)OC(=O)[C@H]3CCCN3C(=O)C(=O)C(C)(C)CC)c2)C(N)=O)N=N1.O=C(O)C(F)(F)F` [Compound 6], where the note is “crude probes 10 µM, comparison”, the “Fluorescent intensity of the bands” value is “brighter than crude 3”.

With `C#CCCC1(CC[C@H](NC(=O)NCCCCCCNC(=O)NCCN)C(N)=O)N=N1` [Compound 7, (S)-16-amino-2-(2-(3-(but-3-yn-1-yl)-3H-diazirin-3-yl)ethyl)-4,13-dioxo-3,5,12,14-tetraazahexadecanamide], the “Nonspecific labeling of FKBP12” value (crude linker, 10 and 40 µM, negative control) is on record as “not seen”.

On to `CO[C@H]1C[C@@H]2CC[C@@H](C)[C@@](O)(O2)C(=O)C(=O)N2CCCC[C@H]2C(=O)O[C@H]([C@H](C)C[C@@H]2CC[C@@H](O)[C@H](OC)C2)CC(=O)[C@H](C)/C=C(\C)[C@@H](O)[C@@H](OC)C(=O)[C@H](C)C[C@H](C)/C=C/C=C/C=C/1C` [rapamycin, reference compound], for which the “Competition of PAL probe interaction with FKBP12” value (rapamycin 10 µM pretreatment, purified and crude probes 10 µM) was “prevented interaction with the PAL probes”.
